The target in the assay is T1, GCase (Homo sapiens, UniProt P04062).
T1 construct: endogenous in cells; host or cells: HeLa cells
T1 sequence (P04062 40-536): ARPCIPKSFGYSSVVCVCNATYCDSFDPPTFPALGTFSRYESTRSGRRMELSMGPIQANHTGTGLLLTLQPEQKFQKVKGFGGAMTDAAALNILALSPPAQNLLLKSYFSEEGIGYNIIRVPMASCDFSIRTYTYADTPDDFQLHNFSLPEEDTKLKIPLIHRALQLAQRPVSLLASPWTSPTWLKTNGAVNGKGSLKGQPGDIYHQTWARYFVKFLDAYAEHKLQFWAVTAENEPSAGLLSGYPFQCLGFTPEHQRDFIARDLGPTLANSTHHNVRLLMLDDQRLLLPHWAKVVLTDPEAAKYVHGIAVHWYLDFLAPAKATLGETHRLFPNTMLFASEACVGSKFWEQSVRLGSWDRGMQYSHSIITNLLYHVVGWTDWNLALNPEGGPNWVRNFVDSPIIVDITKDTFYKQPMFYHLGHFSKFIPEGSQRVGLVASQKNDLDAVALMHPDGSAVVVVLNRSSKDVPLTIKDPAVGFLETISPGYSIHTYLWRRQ
Nature of the assay: activation of GCase in a live cell PFB assay in HELA cells. The format is cell-based.

In patent US20240262832A1, “SMALL MOLECULE MODULATORS OF GLUCOCEREBROSIDASE ACTIVITY AND USES THEREOF” (Vanqua Bio, Inc., priority 2021, published 2024) one finds EC50 data, which are given here for 42 molecules.

A word on the EC50: it is the concentration giving half of the maximal effect. A lower EC50 goes with higher potency in that assay.

Each structure is given as a SMILES string.

For the molecule `Cc1ccccc1OCC1CCCN(C(=O)c2cn(C)c3ccn(-c4ccccc4)c(=O)c23)C1` (stereo not drawn) [Compound 38, 1-Methyl-5-phenyl-3-(3-((o-tolyloxy)methyl)piperidine-1-carbonyl)-1,5-dihydro-4H-pyrrolo[3,2-c]pyridin-4-one], the EC50 lay within 10 to 50 µM.

Take `C[C@@H]1CC[C@H](COc2ccncc2C(F)(F)F)CN1c1cnc2cnn(CC(F)F)c2n1` [Compound 282, 1-(2,2-Difluoroethyl)-6-((2R,5S)-2-methyl-5-(((3-(trifluoromethyl)pyridin-4-yl)oxy)methyl)piperidin-1-yl)-1H-pyrazolo[3,4-b]pyrazine]: the EC50 is less than 10 µM.

`O=C(Cc1ccnn(-c2ccccc2)c1=O)N1CCCC(COc2ccccc2)C1` (stereo not drawn) [Compound 44, 4-(2-Oxo-2-(3-(phenoxymethyl)piperidin-1-yl)ethyl)-2-phenylpyridazin-3(2H)-one] gave an EC50 of more than 100 µM. Consider `CC(C)(c1ccccc1)c1nnc(C(=O)N2CCCC(COc3ccccc3)C2)o1` (stereo not drawn) [Compound 24, (3-(Phenoxymethyl)piperidin-1-yl)(5-(2-phenylpropan-2-yl)-1,3,4-oxadiazol-2-yl)methanone], for which the EC50 was 10 to 50 µM. `COc1ccc(OCC2CCN(c3nc(N)nc(C)c3C)CC2)cc1` [Compound 458]: the EC50 is more than 100 µM.

`CC1CCC(COc2cccnc2C(F)(F)F)CN1C(=O)c1ccc2cc[nH]c2c1` (stereo not drawn) [Compound 128, (1H-Indol-6-yl)(2-methyl-5-(((2-(trifluoromethyl)pyridin-3-yl)oxy)methyl)piperidin-1-yl)methanone] showed an EC50 of 10 to 50 µM.

Take `COc1ccc(OCC2CCN(C(=O)Nc3cnn(C)c3C)CC2)cc1` [Compound 439]: the EC50 fell in the range of 50 to 100 µM. In turn, `O=C(c1ccc2ccn(C3COC3)c2c1)N1CCC[C@H](CCc2ccccc2C(F)(F)F)C1` [Compound 19, 1-(oxetan-3-yl)-6-[(3S)-3-{2-[2-(trifluoromethyl)phenyl]ethyl}piperidine-1-carbonyl]-1H-indole] gave an EC50 of 10 to 50 µM. The molecule `CC1CCN(c2cnc3cnn(CC(F)F)c3n2)CC1COc1cccnc1C(F)(F)F` (stereo not drawn) [Compound 48, 1-(2,2-Difluoroethyl)-6-(4-methyl-3-(((2-(trifluoromethyl)pyridin-3-yl)oxy)methyl)piperidin-1-yl)-1H-pyrazolo[3,4-b]pyrazine] gave an EC50 of less than 10 µM. Next, `COc1ccc(OCC2CCN(CC(=O)Nc3cn(C)nc3C)CC2)cc1` [Compound 479]: 10 to 50 µM; `COc1ccc(OCC2CCN(C(=O)c3cnc(N)nc3C)CC2)cc1` [Compound 462]: more than 100 µM. Regarding `O=C(c1ccc2cc[nH]c2c1)N1CCC(Oc2ccnc(C(F)(F)F)c2)CC1` [Compound 319, (1H-Indol-6-yl)(4-((2-(trifluoromethyl)pyridin-4-yl)oxy)piperidin-1-yl)methanone], the EC50 was in the range of 10 to 50 µM. Take `COc1ccc(OCC2CCN(c3nccc(N4CCCC(O)C4)n3)CC2)cc1` (stereo not drawn) [Compound 424]: the EC50 is less than 10 µM.

Consider `CCN1CCC(NC(=O)N2CCC(COc3ccc(OC)cc3)CC2)C1` (stereo not drawn) [Compound 434], for which the EC50 was more than 100 µM. Take `CC(=O)N1CCC(c2cncc(N3CCCC(COc4ccccc4C(F)(F)F)C3)n2)C(C)C1` (stereo not drawn) [Compound 112, 1-(3-methyl-4-(6-(3-((2-(trifluoromethyl)phenoxy)methyl)piperidin-1-yl)pyrazin-2-yl)piperidin-1-yl)ethan-1-one]: the EC50 was less than 10 µM. Molecule `COc1cccc(C(C(=O)N2CCCC(COc3ccccc3)C2)C(C)C)c1` (stereo not drawn) [Compound 141] had an EC50 of 10 to 50 µM. `COc1ccc(OCC2CCN(c3cc(C4CC(N)C4)ncn3)CC2)cc1` (stereo not drawn) [Compound 482] gave an EC50 of more than 100 µM. Next, `O=C(c1ccc2cc[nH]c2c1)N1CCC(Oc2ccc(C(F)(F)F)cn2)CC1` [Compound 333, (1H-Indol-6-yl)(4-((5-(trifluoromethyl)pyridin-2-yl)oxy)piperidin-1-yl)methanone]: 10 to 50 µM; `Cc1ccccc1OCC1CCCN(C(=O)[C@@H]2CCc3nccc(=O)n32)C1` (stereo partly drawn) [Compound 280, (6S)-6-(3-((o-Tolyloxy)methyl)piperidine-1-carbonyl)-7,8-dihydropyrrolo[1,2-a]pyrimidin-4(6H)-one]: more than 100 µM. Molecule `Cc1ccccc1CCC1CCCN(C(=O)c2cnn(-c3ccccc3)n2)C1` (stereo not drawn) [Compound 15, (3-(2-methylphenethyl)piperidin-1-yl)(2-phenyl-2H-1,2,3-triazol-4-yl)methanone] registered an EC50 of 10 to 50 µM. Next, `NCCn1cc(C(=O)N2CCC(COc3ccc4c(c3)CCC4)CC2)nn1` [Compound 440]: more than 100 µM; `O=C(c1ccc2cc[nH]c2c1)N1CCC(Oc2ncccc2C(F)(F)F)CC1` [Compound 321, (1H-Indol-6-yl)(4-((3-(trifluoromethyl)pyridin-2-yl)oxy)piperidin-1-yl)methanone]: 10 to 50 µM; `CC(=O)N1CCC(c2cc3nc(C(=O)N4C[C@@H]5[C@@H](COc6cccc(C(F)(F)F)n6)[C@@H]5C4)cnc3n2C)CC1` [Compound 225, 1-(4-(5-Methyl-2-((1R,5S,6r)-6-(((6-(trifluoromethyl)pyridin-2-yl)oxy)methyl)-3-azabicyclo[3.1.0]hexane-3-carbonyl)-5H-pyrrolo[2,3-b]pyrazin-6-yl)piperidin-1-yl)ethan-1-one]: more than 100 µM. In the case of `CC1CCC(COc2cccnc2C(F)(F)F)CN1c1cnc2cnn(C3COC3)c2n1` (stereo not drawn) [Compound 117, 6-(2-Methyl-5-(((2-(trifluoromethyl)pyridin-3-yl)oxy)methyl)piperidin-1-yl)-1-(oxetan-3-yl)-1H-pyrazolo[3,4-b]pyrazine], the EC50 was less than 10 µM. The molecule `O=C(c1nnc(C2(c3ccccc3)CCCC2)o1)N1CCCC(COc2ccccc2)C1` (stereo not drawn) [Compound 3, (3-(phenoxymethyl)piperidin-1-yl)(5-(1-phenylcyclopentyl)-1,3,4-oxadiazol-2-yl)methanone] yielded an EC50 of 10 to 50 µM. Take `COc1ccc(OCC2CCN(C(=O)c3cc(C)oc3C)CC2)cc1` [Compound 459]: the EC50 lay in the range of 10 to 50 µM. For `CCCCC1(C(=O)N2CCCC(COc3ccccc3)C2)CCC1` (stereo not drawn) [Compound 177] the value was 10 to 50 µM; for `FC(F)Cn1ncc2ncc(N3CCCC(COc4cccnc4C(F)(F)F)C3)nc21` (stereo not drawn) [Compound 13, 3-({1-[1-(2,2-difluoroethyl)pyrazolo[3,4-b]pyrazin-6-yl]piperidin-3-yl}methoxy)-2-(trifluoromethyl)pyridine], less than 10 µM; for `O=C(N1CCCC(COc2ncccc2C(F)(F)F)C1)N1CCOC(Cc2ccccc2)C1` (stereo not drawn) [Compound 258, (2-Benzylmorpholino)(3-(((3-(trifluoromethyl)pyridin-2-yl)oxy)methyl)piperidin-1-yl)methanone], 50 to 100 µM. As to `C[C@@H]1CC[C@H](COc2cnccc2C(F)(F)F)CN1c1cnc2cnn(CC(F)F)c2n1` [Compound 274, 1-(2,2-Difluoroethyl)-6-((2R,5S)-2-methyl-5-(((4-(trifluoromethyl)pyridin-3-yl)oxy)methyl)piperidin-1-yl)-1H-pyrazolo[3,4-b]pyrazine], the EC50 was less than 10 µM. On to `CCc1nc(CN2CCC(COc3ccc(OC)cc3)CC2)no1` [Compound 470], for which the EC50 was more than 100 µM.

In turn, `FC(F)Cn1ncc2ncc(N3CCCC(F)(COc4cccc(C(F)(F)F)n4)C3)nc21` (stereo not drawn) [Compound 43, 2-({1-[1-(2,2-Difluoroethyl)-1H-pyrazolo[3,4-b]pyrazin-6-yl]-3-fluoropiperidin-3-yl}methoxy)-6-(trifluoromethyl)pyridine] registered an EC50 of 10 to 50 µM. On to `O=C(c1cnn(-c2ccccc2)n1)N1CCC(Oc2ccccc2)CC1` [Compound 410, 4-Phenoxy-1-(2-phenyl-2H-1,2,3-triazole-4-carbonyl)piperidine], for which the EC50 lay in the range of 10 to 50 µM. As for `FC(F)Cn1ncc2ncc(N3C[C@@H]4[C@@H](COc5cccc(C(F)(F)F)n5)[C@@H]4C3)nc21` [Compound 36, (1R,5S,6S)-3-[1-(2,2-Difluoroethyl)-1H-pyrazolo[3,4-b]pyrazin-6-yl]-6-({[6-(trifluoromethyl)pyridin-2-yl]oxy}methyl)-3-azabicyclo[3.1.0]hexane], the concentration for a half-maximal effect (EC50) was in the range of 10 to 50 µM.

As to `COc1ccc(OCC2CCN(C(=O)c3ccc(CN4CCCC4)o3)CC2)cc1` [Compound 457], the EC50 was more than 100 µM. `C[C@H]1C[C@H](COc2cccnc2C(F)(F)F)CN(c2cnc3cnn(CC(F)F)c3n2)C1` [Compound 100, 1-(2,2-Difluoroethyl)-6-((3S,5S)-3-methyl-5-(((2-(trifluoromethyl)pyridin-3-yl)oxy)methyl)piperidin-1-yl)-1H-pyrazolo[3,4-b]pyrazine] displayed an EC50 of 10 to 50 µM. As for `c1ccc(COC2CCN(c3cnc4ccccc4n3)CC2)cc1` [Compound 417, 2-[4-(Benzyloxy)piperidin-1-yl]quinoxaline], the EC50 fell in the range of 10 to 50 µM. Next, `COc1ccc(OCC2CCN(C(=O)c3ccc(C#CC(C)(C)O)o3)CC2)cc1` [Compound 433]: 10 to 50 µM; `COc1ccc(OCC2CCN(C(=O)c3cccc(NC(=O)C(C)C)c3)CC2)cc1` [Compound 446]: 10 to 50 µM.

In turn, `COc1ccc(OCCCC(=O)N2CCCC(COc3ccccc3)C2)cc1` (stereo not drawn) [Compound 12] displayed an EC50 of 10 to 50 µM. In turn, `O=C(Cc1csc(-c2ccccc2)n1)N1CCC(Oc2cccc(C(F)(F)F)n2)CC1` [Compound 402, 2-(2-Phenyl-1,3-thiazol-4-yl)-1-(4-{[6-(trifluoromethyl)pyridin-2-yl]oxy}piperidin-1-yl)ethan-1-one] displayed an EC50 of 10 to 50 µM. The molecule `CCn1cc(-c2cccc(C(=O)N3CCC(OCc4ccccc4)CC3)c2)cn1` [Compound 476] gave an EC50 of 50 to 100 µM.
